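1) Cells in 96-well plates. 2) Compound, 48 h, 5 concentrations. 3) Linear interpolation between surrounding doses. 4) Unreached endpoint = highest concentration. GI50: concentration for 50% inhibition of growth. TGI: concentration producing complete growth inhibition.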
What was measured:
Test in all cases: growth of human tumour cells (NCI), 48 h
[1] = system: HT29 colon
[2] = system: KM12 colon
[3] = system: SK-MEL-5 melanoma
[4] = system: MALME-3M melanoma
[5] = system: UACC-257 melanoma
[6] = system: TK-10 renal
[7] = system: SK-MEL-2 melanoma
[8] = system: RPMI-8226 leukemia
[9] = system: BT-549 breast
[10] = system: HOP-62 NSCLC
[11] = system: MDA-MB-231 breast
[12] = system: UACC-62 melanoma
[13] = system: SF-539 CNS
[14] = system: DU-145 prostate
[15] = system: HCT-15 colon
[16] = system: A498 renal
[17] = system: HCC-2998 colon
[18] = system: A549 NSCLC
[19] = system: U251 CNS
[20] = system: OVCAR-5 ovarian
[21] = system: LOX IMVI melanoma
[22] = system: NCI-H460 lung
[23] = system: MOLT-4 leukemia
[24] = system: SK-MEL-28 melanoma
[25] = system: NCI/ADR-RES ovarian
[26] = system: OVCAR-4 ovarian
[27] = system: SF-295 CNS
[28] = system: MCF7 breast
[29] = system: RXF 393 renal
[30] = system: OVCAR-3 ovarian
[31] = system: CCRF-CEM leukemia
[32] = system: PC-3 prostate
[33] = system: EKVX NSCLC
[34] = system: IGROV1 ovarian
[35] = system: MDA-MB-435
[36] = system: SNB-75 CNS
[37] = system: UO-31 renal
[38] = system: SN12C renal
[39] = system: SNB-19 CNS
[40] = system: HL-60(TB) leukemia
[41] = system: ACHN renal
[42] = system: K-562 leukemia
[43] = system: COLO 205 colon
[44] = system: 786-0 renal
[45] = system: NCI-H226 lung
[46] = system: T-47D breast
[47] = system: NCI-H522 lung
[48] = system: CAKI-1 renal
[49] = system: SK-OV-3 ovarian
[50] = system: SF-268 CNS
[51] = system: HOP-92 NSCLC
[52] = system: HS 578T breast
[53] = system: SW-620 colon
[54] = system: HCT-116 colon
[55] = system: NCI-H23 lung
[56] = system: OVCAR-8 ovarian

With `CCOC(=O)c1cnn(-c2ccnc3c(C(F)(F)F)cccc23)c1N` the GI50 [1] was over 100 µM, the TGI [1] was over 100 µM and the GI50 [2] was over 100 µM. For the same compound, the TGI [2] was over 100 µM, the GI50 [3] was over 100 µM and the TGI [3] was over 100 µM. For the same compound, the GI50 [4] was over 100 µM, the TGI [4] was over 100 µM and the GI50 [5] was over 100 µM. For the same compound, the TGI [5] was over 100 µM, the GI50 [6] was over 100 µM and the TGI [6] was over 100 µM. The GI50 [7] was over 100 µM, the TGI [7] was over 100 µM and the GI50 [8] was 98.4 µM. For the same compound, the TGI [8] was over 100 µM, the GI50 [9] was 70.7 µM and the TGI [9] was over 100 µM. For the same compound, the GI50 [10] was over 100 µM, the TGI [10] was over 100 µM and the GI50 [11] was over 100 µM. The TGI [11] was over 100 µM, the GI50 [12] was over 100 µM and the TGI [12] was over 100 µM. It also gave a GI50 [13] of over 100 µM, a TGI [13] of over 100 µM and a GI50 [14] of over 100 µM. The TGI [14] was over 100 µM, the GI50 [15] was over 100 µM and the TGI [15] was over 100 µM. The GI50 [16] was over 100 µM, the TGI [16] was over 100 µM and the GI50 [17] was over 100 µM. The TGI [17] was over 100 µM, the GI50 [18] was over 100 µM and the TGI [18] was over 100 µM. For the same compound, the GI50 [19] was over 100 µM, the TGI [19] was over 100 µM and the GI50 [20] was over 100 µM. The TGI [20] was over 100 µM, the GI50 [21] was over 100 µM and the TGI [21] was over 100 µM. For the same compound, the GI50 [22] was over 100 µM, the TGI [22] was over 100 µM and the GI50 [23] was over 100 µM. It also gave a TGI [23] of over 100 µM, a GI50 [24] of over 100 µM and a TGI [24] of over 100 µM. The GI50 [25] was over 100 µM, the TGI [25] was over 100 µM and the GI50 [26] was over 100 µM. The TGI [26] was over 100 µM, the GI50 [27] was over 100 µM and the TGI [27] was over 100 µM. The GI50 [28] was over 100 µM, the TGI [28] was over 100 µM and the GI50 [29] was over 100 µM. It also gave a TGI [29] of over 100 µM, a GI50 [30] of over 100 µM and a TGI [30] of over 100 µM. For the same compound, the GI50 [31] was over 100 µM, the TGI [31] was over 100 µM and the GI50 [32] was over 100 µM. It also gave a TGI [32] of over 100 µM, a GI50 [33] of over 100 µM and a TGI [33] of over 100 µM. The GI50 [34] was over 100 µM, the TGI [34] was over 100 µM and the GI50 [35] was over 100 µM. For the same compound, the TGI [35] was over 100 µM, the GI50 [36] was 51.7 µM and the TGI [36] was over 100 µM. It also gave a GI50 [37] of over 100 µM, a TGI [37] of over 100 µM and a GI50 [38] of over 100 µM. The TGI [38] was over 100 µM, the GI50 [39] was over 100 µM and the TGI [39] was over 100 µM. It also gave a GI50 [40] of over 100 µM, a TGI [40] of over 100 µM and a GI50 [41] of over 100 µM. The TGI [41] was over 100 µM, the GI50 [42] was over 100 µM and the TGI [42] was over 100 µM. It also gave a GI50 [43] of over 100 µM, a TGI [43] of over 100 µM and a GI50 [44] of over 100 µM. It also gave a TGI [44] of over 100 µM, a GI50 [45] of over 100 µM and a TGI [45] of over 100 µM. It also gave a GI50 [46] of over 100 µM, a TGI [46] of over 100 µM and a GI50 [47] of over 100 µM. The TGI [47] was over 100 µM, the GI50 [48] was over 100 µM and the TGI [48] was over 100 µM. It also gave a GI50 [49] of over 100 µM, a TGI [49] of over 100 µM and a GI50 [50] of over 100 µM. The TGI [50] was over 100 µM, the GI50 [51] was 29.6 µM and the TGI [51] was over 100 µM. It also gave a GI50 [52] of 24.8 µM, a TGI [52] of over 100 µM and a GI50 [53] of over 100 µM. For the same compound, the TGI [53] was over 100 µM, the GI50 [54] was over 100 µM and the TGI [54] was over 100 µM. The GI50 [55] was over 100 µM, the TGI [55] was over 100 µM and the GI50 [56] was over 100 µM. It also gave a TGI [56] of over 100 µM.

— PubChem BioAssay (NCI)
